{
  "source": "ChEMBL document CHEMBL3046275",
  "about": "“EBHU18, a novel derivative of fatty acid bile acid conjugates, prevents cholesterol gallstone formation in experimental mice” (Med Chem Res, 2012)",
  "key": {"[1]": {"tested_on": "Mus musculus", "test": "Toxicity in lithogenic diet-fed Mus musculus C57BL/6 (mouse) assessed as change in body weight at 0.5 to 3 mg/kg/day, po after 8 weeks", "type": "organism-based", "set-up": "route oral", "conditions": "in vivo, 1344 h"}, "[2]": {"tested_on": "Mus musculus", "test": "Reduction of lithogenic diet-induced fatty liver formation in Mus musculus C57BL/6 (mouse) at 0.5 to 3 mg/kg/day, po followed by lithogenic diet feeding for 8 weeks by hematoxylin-eosin staining relative to untreated control", "type": "functional, organism-based"}, "[3]": {"tested_on": "Mus musculus", "test": "Hepatoprotective activity in lithogenic diet-fed Mus musculus C57BL/6 (mouse) assessed as decrease in serum triglyceride level at 0.5 to 3 mg/kg/day, po after 8 weeks relative to untreated control", "type": "functional, organism-based"}, "[4]": {"tested_on": "Mus musculus", "test": "Reduction of lithogenic diet-induced fatty liver formation in Mus musculus C57BL/6 (mouse) at 0.5 to 3 mg/kg/day, po after 8 weeks by hematoxylin-eosin staining relative to untreated control", "type": "functional, organism-based"}, "[5]": {"tested_on": "Mus musculus", "test": "Hepatoprotective activity in lithogenic diet-fed Mus musculus C57BL/6 (mouse) assessed as decrease in serum total cholesterol level at 0.5 mg/kg/day, po followed by lithogenic diet feeding for 8 weeks (reference value: 2.24 +/- 0.27 mmol/l)", "type": "functional"}, "[6]": {"tested_on": "Mus musculus", "test": "Reduction of lithogenic diet-induced gallstone formation in Mus musculus C57BL/6 (mouse) at 3 mg/kg/day, po followed by lithogenic diet feeding for 8 weeks by infrared photoacoustic spectroscopic analysis (reference value: 1.53 +/- 0.63 g)", "type": "functional"}, "[7]": {"tested_on": "Mus musculus", "test": "Hepatoprotective activity in lithogenic diet-fed Mus musculus C57BL/6 (mouse) assessed as decrease in serum total cholesterol level at 3 mg/kg/day, po followed by lithogenic diet feeding for 8 weeks (reference value: 2.24 +/- 0.27 mmol/l)", "type": "functional"}, "[8]": {"tested_on": "Mus musculus", "test": "Protection against lithogenic diet-induced gallstone formation in Mus musculus C57BL/6 (mouse) at 0.5 mg/kg/day, po after 8 weeks by infrared photoacoustic spectroscopic analysis relative to untreated control", "type": "functional, organism-based"}, "[9]": {"tested_on": "Mus musculus", "test": "Hepatoprotective activity in lithogenic diet-fed Mus musculus C57BL/6 (mouse) assessed as decrease in serum triglyceride level at 0.5 mg/kg/day, po followed by lithogenic diet feeding for 8 weeks (reference value: 1.01+/- 0.15 mmol/l)", "type": "functional"}, "[10]": {"tested_on": "Mus musculus", "test": "Hepatoprotective activity in lithogenic diet-fed Mus musculus C57BL/6 (mouse) assessed as decrease in serum ALT level at 3 mg/kg/day, po followed by lithogenic diet feeding for 8 weeks (reference value: 42.6 +/- 7.63 IU/L)", "type": "functional"}, "[11]": {"tested_on": "Mus musculus", "test": "Hepatoprotective activity in lithogenic diet-fed Mus musculus C57BL/6 (mouse) assessed as decrease in serum ALT level at 0.5 mg/kg/day, po followed by lithogenic diet feeding for 8 weeks (reference value: 42.6 +/- 7.63 IU/L)", "type": "functional"}, "[12]": {"tested_on": "Mus musculus", "test": "Protection against lithogenic diet-induced gallstone formation in Mus musculus C57BL/6 (mouse) at 3 mg/kg/day, po after 8 weeks by infrared photoacoustic spectroscopic analysis relative to untreated control", "type": "functional, organism-based"}, "[13]": {"tested_on": "Mus musculus", "test": "Hepatoprotective activity in lithogenic diet-fed Mus musculus C57BL/6 (mouse) assessed as decrease in serum triglyceride level at 3 mg/kg/day, po followed by lithogenic diet feeding for 8 weeks (reference value: 1.01+/- 0.15 mmol/l)", "type": "functional"}, "[14]": {"tested_on": "Mus musculus", "test": "Hepatoprotective activity in lithogenic diet-fed Mus musculus C57BL/6 (mouse) assessed as decrease in serum ALT level at 0.5 to 3 mg/kg/day, po after 8 weeks relative to untreated control", "type": "functional, organism-based"}, "[15]": {"tested_on": "Mus musculus", "test": "Toxicity in lithogenic diet-fed Mus musculus C57BL/6 (mouse) assessed as change in body weight at 3 mg/kg/day, po followed by lithogenic diet feeding for 8 weeks (reference value: 30.82 +/- 2.88 g)", "type": "organism-based", "set-up": "route oral", "conditions": "in vivo, 1344 h"}, "[16]": {"tested_on": "Mus musculus", "test": "Toxicity in lithogenic diet-fed Mus musculus C57BL/6 (mouse) assessed as change in body weight at 0.5 mg/kg/day, po followed by lithogenic diet feeding for 8 weeks (reference value: 30.82 +/- 2.88 g)", "type": "organism-based", "set-up": "route oral", "conditions": "in vivo, 1344 h"}, "[17]": {"tested_on": "Mus musculus", "test": "Hepatoprotective activity in lithogenic diet-fed Mus musculus C57BL/6 (mouse) assessed as decrease in serum total cholesterol level at 0.5 to 3 mg/kg/day, po after 8 weeks relative to untreated control", "type": "functional, organism-based"}, "[18]": {"tested_on": "Mus musculus", "test": "Reduction of lithogenic diet-induced gallstone formation in Mus musculus C57BL/6 (mouse) at 0.5 mg/kg/day, po followed by lithogenic diet feeding for 8 weeks by infrared photoacoustic spectroscopic analysis (reference value: 1.53 +/- 0.63 g)", "type": "functional"}, "[19]": {"tested_on": "Mus musculus", "test": "Toxicity in lithogenic diet-fed Mus musculus C57BL/6 (mouse) assessed as change in body weight at 10 mg/kg/day, po followed by lithogenic diet feeding for 8 weeks (reference value: 30.82 +/- 2.88 g)", "type": "organism-based", "set-up": "route oral", "conditions": "in vivo, 1344 h"}, "[20]": {"tested_on": "Mus musculus", "test": "Reduction of lithogenic diet-induced fatty liver formation in Mus musculus C57BL/6 (mouse) at 10 mg/kg/day, po followed by lithogenic diet feeding for 8 weeks by hematoxylin-eosin staining relative to untreated control", "type": "functional, organism-based"}, "[21]": {"tested_on": "Mus musculus", "test": "Hepatoprotective activity in lithogenic diet-fed Mus musculus C57BL/6 (mouse) assessed as decrease in serum total cholesterol level at 10 mg/kg/day, po followed by lithogenic diet feeding for 8 weeks (reference value: 2.24 +/- 0.27 mmol/l)", "type": "functional"}, "[22]": {"tested_on": "Mus musculus", "test": "Hepatoprotective activity in lithogenic diet-fed Mus musculus C57BL/6 (mouse) assessed as decrease in serum total cholesterol level at 10 mg/kg/day, po after 8 weeks relative to untreated control", "type": "functional, organism-based"}, "[23]": {"tested_on": "Mus musculus", "test": "Reduction of lithogenic diet-induced gallstone formation in Mus musculus C57BL/6 (mouse) at 10 mg/kg/day, po followed by lithogenic diet feeding for 8 weeks by infrared photoacoustic spectroscopic analysis (reference value: 1.53 +/- 0.63 g)", "type": "functional"}, "[24]": {"tested_on": "Mus musculus", "test": "Toxicity in lithogenic diet-fed Mus musculus C57BL/6 (mouse) assessed as change in body weight at 10 mg/kg/day, po after 8 weeks", "type": "organism-based", "set-up": "route oral", "conditions": "in vivo, 1344 h"}, "[25]": {"tested_on": "Mus musculus", "test": "Protection against lithogenic diet-induced gallstone formation in Mus musculus C57BL/6 (mouse) at 10 mg/kg/day, po after 8 weeks by infrared photoacoustic spectroscopic analysis relative to untreated control", "type": "functional, organism-based"}, "[26]": {"tested_on": "Mus musculus", "test": "Hepatoprotective activity in lithogenic diet-fed Mus musculus C57BL/6 (mouse) assessed as decrease in serum triglyceride level at 10 mg/kg/day, po after 8 weeks relative to untreated control", "type": "functional, organism-based"}, "[27]": {"tested_on": "Mus musculus", "test": "Hepatoprotective activity in lithogenic diet-fed Mus musculus C57BL/6 (mouse) assessed as decrease in serum triglyceride level at 10 mg/kg/day, po followed by lithogenic diet feeding for 8 weeks (reference value: 1.01+/- 0.15 mmol/l)", "type": "functional"}, "[28]": {"tested_on": "Mus musculus", "test": "Hepatoprotective activity in lithogenic diet-fed Mus musculus C57BL/6 (mouse) assessed as decrease in serum ALT level at 10 mg/kg/day, po followed by lithogenic diet feeding for 8 weeks (reference value: 42.6 +/- 7.63 IU/L)", "type": "functional"}, "[29]": {"tested_on": "Mus musculus", "test": "Hepatoprotective activity in lithogenic diet-fed Mus musculus C57BL/6 (mouse) assessed as decrease in serum ALT level at 10 mg/kg/day, po after 8 weeks relative to untreated control", "type": "functional, organism-based"}},
  "note": "Active and inactive are the calls of the source. No cut-off for these calls is given here.",
  "data": [
    {"smiles": "CCCCCCCCCCCCCCCCCCCC(=O)NCCCCC(NC(=O)CC[C@@H](C)[C@H]1CC[C@H]2[C@@H]3C(O)C[C@@H]4C[C@H](O)CC[C@]4(C)[C@H]3C[C@H](O)[C@]12C)C(=O)O", "note": "(some centres undefined)", "values": [
      {"measurement": "Activity", "setting": "[1]", "result": "Non-toxic"},
      {"measurement": "Activity", "setting": "[2]", "result": "Active"},
      {"measurement": "Activity", "setting": "[3]", "result": "Active"},
      {"measurement": "Activity", "setting": "[4]", "result": "Active"},
      {"measurement": "Activity", "setting": "[5]", "result": 2.09, "unit": "mmol/L"},
      {"measurement": "Activity", "setting": "[6]", "result": 0.96, "unit": "g"},
      {"measurement": "Activity", "setting": "[7]", "result": 2.04, "unit": "mmol/L"},
      {"measurement": "Activity", "setting": "[8]", "result": "inactive"},
      {"measurement": "Activity", "setting": "[9]", "result": 0.76, "unit": "mmol/L"},
      {"measurement": "Activity", "setting": "[10]", "result": 36.5, "unit": "IU/L"},
      {"measurement": "Activity", "setting": "[11]", "result": 34.8, "unit": "IU/L"},
      {"measurement": "Activity", "setting": "[12]", "result": "Active"},
      {"measurement": "Activity", "setting": "[13]", "result": 0.74, "unit": "mmol/L"},
      {"measurement": "Activity", "setting": "[14]", "result": "Active"},
      {"measurement": "Activity", "setting": "[15]", "result": 31.74, "unit": "g"},
      {"measurement": "Activity", "setting": "[16]", "result": 31.89, "unit": "g"},
      {"measurement": "Activity", "setting": "[17]", "result": "Active"},
      {"measurement": "Activity", "setting": "[18]", "result": 1.02, "unit": "g"}
    ]},
    {"smiles": "C[C@H](CCC(=O)O)[C@H]1CC[C@H]2[C@@H]3[C@@H](O)C[C@@H]4C[C@H](O)CC[C@]4(C)[C@H]3CC[C@]12C", "note": "[URSODIOL]", "values": [
      {"measurement": "Activity", "setting": "[19]", "result": 31.76, "unit": "g"},
      {"measurement": "Activity", "setting": "[20]", "result": "inactive"},
      {"measurement": "Activity", "setting": "[21]", "result": 2.16, "unit": "mmol/L"},
      {"measurement": "Activity", "setting": "[22]", "result": "Active"},
      {"measurement": "Activity", "setting": "[23]", "result": 1.41, "unit": "g"},
      {"measurement": "Activity", "setting": "[24]", "result": "Non-toxic"},
      {"measurement": "Activity", "setting": "[25]", "result": "inactive"},
      {"measurement": "Activity", "setting": "[26]", "result": "Active"},
      {"measurement": "Activity", "setting": "[27]", "result": 0.75, "unit": "mmol/L"},
      {"measurement": "Activity", "setting": "[28]", "result": 38, "unit": "IU/L"},
      {"measurement": "Activity", "setting": "[29]", "result": "Active"}
    ]}
  ]
}
